According to ChEMBL document CHEMBL4602605, “Fluoroquinolones structural and medicinal developments (2013-2018): Where are we now?” (Bioorg Med Chem, 2019):
Values after ≈ are worked out from the molar mass of the structure shown.

Columns and labels:
Format in all cases: functional
Escherichia coli [1] = experiment: Antimicrobial activity against ESBL non-producing Escherichia coli ATCC 25922
Klebsiella pneumoniae [2] = experiment: Antimicrobial activity against ESBL-producing Klebsiella pneumoniae ATCC 700603
[3] = test system: Acinetobacter calcoaceticus; experiment: Antimicrobial activity against Acinetobacter calcoaceticus ATCC 19606
Enterobacter cloacae = experiment: Antimicrobial activity against Enterobacter cloacae ATCC 43560
Pseudomonas aeruginosa [4] = experiment: Antimicrobial activity against Pseudomonas aeruginosa ATCC 27853
Escherichia coli [5] = experiment: Antibacterial activity against Escherichia coli NCDC 134 by single disk method
Pseudomonas aeruginosa [6] = experiment: Antibacterial activity against Pseudomonas aeruginosa NCDC 105 by single disk method
Bacillus subtilis = experiment: Antibacterial activity against Bacillus subtilis NCDC 71 by single disk method
Paenibacillus polymyxa = experiment: Antibacterial activity against Paenibacillus polymyxa NCDC 64 by single disk method
Staphylococcus aureus [7] = experiment: Antibacterial activity against Staphylococcus aureus NCDC 110 by single disk method
Mus musculus = experiment: Analgesic activity in Swiss albino mouse assessed as acetic acid-induced writhing number at 50 mg/kg pretreated for 30 mins followed by acetic acid challenge and measured after 5 to 15 mins (reference value: 30.8 +/- 0.37)
Metaphire posthuma = experiment: Anthelmintic activity against Pheretima posthuma assessed as mean paralysing time at 200 mg/ml
[8] = test system: Staphylococcus epidermidis; experiment: Antimicrobial activity against methicillin-susceptible Staphylococcus epidermidis clinical isolate incubated for 16 hrs by CLSI based agar dilution method
[9] = test system: Staphylococcus epidermidis; experiment: Antimicrobial activity against methicillin-resistant Staphylococcus epidermidis clinical isolate incubated for 16 hrs by CLSI based agar dilution method
Staphylococcus aureus [10] = experiment: Antimicrobial activity against methicillin-susceptible Staphylococcus aureus clinical isolate incubated for 16 hrs by CLSI based agar dilution method
Staphylococcus aureus [11] = experiment: Antimicrobial activity against methicillin-resistant Staphylococcus aureus clinical isolate incubated for 16 hrs by CLSI based agar dilution method
Escherichia coli [12] = experiment: Antimicrobial activity against Escherichia coli ATCC 700603 incubated for 16 hrs by CLSI-based agar dilution method; conditions: ATCC 700603, 16 h
Klebsiella pneumoniae [13] = experiment: Antimicrobial activity against Klebsiella pneumoniae ATCC 29522 incubated for 16 hrs by CLSI-based agar dilution method; conditions: ATCC 29522, 16 h

| Compound | MIC (Escherichia coli [1]) [µM] | MIC (Klebsiella pneumoniae [2]) [µM] | MIC [3] [µM] | MIC (Enterobacter cloacae) [µM] | MIC (Pseudomonas aeruginosa [4]) [µM] | MIC (Escherichia coli [5]) [µg/mL] | MIC (Pseudomonas aeruginosa [6]) [µg/mL] | MIC (Bacillus subtilis) [µg/mL] | MIC (Paenibacillus polymyxa) [µg/mL] | MIC (Staphylococcus aureus [7]) [µg/mL] | Activity (Mus musculus) | Time (Metaphire posthuma) [min] | further results |
| --- | --- | --- | --- | --- | --- | --- | --- | --- | --- | --- | --- | --- | --- |
| CCn1cc(C(=O)O)c(=O)c2cc(F)c(N3CCN(CC(=O)Nc4nc5c(Cl)ccc(Cl)c5s4)CC3)cc21 | – | – | – | – | – | 60 (≈ 104 µM) | 30 (≈ 51.9 µM) | 20 (≈ 34.6 µM) | 15 (≈ 25.9 µM) | 40 (≈ 69.1 µM) | 17.4 | 26.8 | – |
| COc1c(N2CCN(CC(=O)Nc3nc4ccc(Cl)c(Cl)c4s3)C(C)C2)c(F)cc2c(=O)c(C(=O)O)cn(C3CC3)c12 (stereo not given) | – | – | – | – | – | 70 (≈ 110 µM) | 30 (≈ 47.3 µM) | 25 (≈ 39.4 µM) | 25 (≈ 39.4 µM) | 10 (≈ 15.8 µM) | 0.73 | 2.7 | – |
| COc1c(N2C[C@H]3CCCN(C(O)Cn4cc([N+](=O)[O-])nc4Cl)[C@H]3C2)c(F)cc2c(=O)c(C(=O)O)cn(C3CC3)c12 (stereo not given in full) | – | – | – | – | – | – | – | – | – | – | – | – | MIC [8]: 0.25 µg/mL (≈ 0.423 µM); MIC [9]: 0.125 µg/mL (≈ 0.212 µM); MIC (Staphylococcus aureus [10]): 0.5 µg/mL (≈ 0.846 µM); MIC (Staphylococcus aureus [11]): 16 µg/mL (≈ 27.1 µM); MIC (Escherichia coli [12]): 2 µg/mL (≈ 3.38 µM); MIC (Klebsiella pneumoniae [13]): > 32 µg/mL |
| CCn1cc(C(=O)O)c(=O)c2cc(F)c(N3CCN(CC(=O)Nc4nc5ccc(F)cc5s4)CC3)cc21 | – | – | – | – | – | 35 (≈ 66.3 µM) | 40 (≈ 75.8 µM) | 65 (≈ 123 µM) | 55 (≈ 104 µM) | 45 (≈ 85.3 µM) | 18.6 | 23.6 | – |
| CCn1cc(C(=O)O)c(=O)c2cc(F)c(N3CCN(CC(=O)Nc4nc5ccc([N+](=O)[O-])cc5s4)CC3)cc21 | – | – | – | – | – | 125 (≈ 225 µM) | 55 (≈ 99.2 µM) | 15 (≈ 27 µM) | 75 (≈ 135 µM) | 105 (≈ 189 µM) | 17.8 | 27 | – |
| CCn1cc(C(=O)O)c(=O)c2cc(F)c(N3CCN(CC(=O)Nc4nc5ccc(Cl)cc5s4)CC3)cc21 | – | – | – | – | – | 50 (≈ 91.9 µM) | 10 (≈ 18.4 µM) | 2 (≈ 3.68 µM) | 25 (≈ 46 µM) | 15 (≈ 27.6 µM) | 15.2 | 23.6 | – |
| O=C(O)c1cn([C@@H]2C[C@@H]2F)c2cc(N3CCN(Cn4nc(-c5ccncc5)n(Cc5ccccc5)c4=S)CC3)c(F)cc2c1=O | ≤ 0.05 | 1.59 (≈ 1 µg/mL) | 12.7 (≈ 8 µg/mL) | ≤ 0.05 | 0.79 (≈ 0.497 µg/mL) | – | – | – | – | – | – | – | – |
| COc1c(N2CCN(CC(=O)Nc3nc4c(C)cccc4s3)C(C)C2)c(F)cc2c(=O)c(C(=O)O)cn(C3CC3)c12 (stereo not given) | – | – | – | – | – | 75 (≈ 129 µM) | 85 (≈ 147 µM) | 120 (≈ 207 µM) | 60 (≈ 104 µM) | 70 (≈ 121 µM) | 20.8 | 32.4 | – |
| O=C(CN1CCN(c2cc3c(cc2F)c(=O)c(C(=O)O)cn3C2CC2)CC1)Nc1nc2ccc(F)cc2s1 | – | – | – | – | – | 80 (≈ 148 µM) | 60 (≈ 111 µM) | 40 (≈ 74.1 µM) | 125 (≈ 232 µM) | 35 (≈ 64.9 µM) | 17 | 27.8 | – |

Second part, led by results:

| MIC (Escherichia coli [1]) [µM] | MIC (Klebsiella pneumoniae [2]) [µM] | MIC [3] [µM] | MIC (Enterobacter cloacae) [µM] | MIC (Pseudomonas aeruginosa [4]) [µM] | MIC (Escherichia coli [5]) [µg/mL] | MIC (Pseudomonas aeruginosa [6]) [µg/mL] | MIC (Bacillus subtilis) [µg/mL] | MIC (Paenibacillus polymyxa) [µg/mL] | MIC (Staphylococcus aureus [7]) [µg/mL] | Compound | Activity (Mus musculus) | Time (Metaphire posthuma) [min] | further results |
| --- | --- | --- | --- | --- | --- | --- | --- | --- | --- | --- | --- | --- | --- |
| ≤ 0.04 | 2.97 (≈ 2 µg/mL) | 23.7 (≈ 16 µg/mL) | ≤ 0.04 | 1.48 (≈ 0.999 µg/mL) | – | – | – | – | – | COc1ccc(-c2nn(CN3CCN(c4cc5c(cc4F)c(=O)c(C(=O)O)cn5[C@@H]4C[C@@H]4F)CC3)c(=S)n2-c2ccccc2)cc1OC | – | – | – |
| ≤ 0.05 | 1.59 (≈ 1 µg/mL) | 6.35 (≈ 4 µg/mL) | ≤ 0.05 | 1.59 (≈ 1 µg/mL) | – | – | – | – | – | O=C(O)c1cn([C@@H]2C[C@@H]2F)c2cc(N3CCN(Cn4nc(-c5cccc(O)c5)n(-c5ccccc5)c4=S)CC3)c(F)cc2c1=O | – | – | – |
| ≤ 0.05 | 0.78 (≈ 0.503 µg/mL) | 6.21 (≈ 4 µg/mL) | ≤ 0.05 | 3.1 (≈ 2 µg/mL) | – | – | – | – | – | COc1ccccc1-c1nn(CN2CCN(c3cc4c(cc3F)c(=O)c(C(=O)O)cn4[C@@H]3C[C@@H]3F)CC2)c(=S)n1-c1ccccc1 | – | – | – |
| 0.1 (≈ 0.0616 µg/mL) | 3.25 (≈ 2 µg/mL) | 13 (≈ 8 µg/mL) | ≤ 0.05 | 3.25 (≈ 2 µg/mL) | – | – | – | – | – | O=C(O)c1cn([C@@H]2C[C@@H]2F)c2cc(N3CCN(Cn4nc(-c5ccncc5)n(-c5ccccc5)c4=S)CC3)c(F)cc2c1=O | – | – | – |
| ≤ 0.05 | 1.55 (≈ 0.999 µg/mL) | 12.4 (≈ 8.01 µg/mL) | ≤ 0.05 | 6.21 (≈ 4 µg/mL) | – | – | – | – | – | COc1cccc(-c2nn(CN3CCN(c4cc5c(cc4F)c(=O)c(C(=O)O)cn5[C@@H]4C[C@@H]4F)CC3)c(=S)n2-c2ccccc2)c1 | – | – | – |
| ≤ 0.05 | 1.63 (≈ 1 µg/mL) | 13 (≈ 8 µg/mL) | ≤ 0.05 | 1.63 (≈ 1 µg/mL) | – | – | – | – | – | O=C(O)c1cn([C@@H]2C[C@@H]2F)c2cc(N3CCN(Cn4nc(-c5cccnc5)n(-c5ccccc5)c4=S)CC3)c(F)cc2c1=O | – | – | – |
| ≤ 0.04 | 1.45 (≈ 0.952 µg/mL) | 5.81 (≈ 3.82 µg/mL) | ≤ 0.04 | 1.45 (≈ 0.952 µg/mL) | – | – | – | – | – | Cc1cc(C)cc(-c2nn(CN3CCN(c4cc5c(cc4F)c(=O)c(C(=O)O)cn5[C@@H]4C[C@@H]4F)CC3)c(=S)n2Cc2ccccc2)c1 | – | – | – |
| 0.1 (≈ 0.0631 µg/mL) | 1.59 (≈ 1 µg/mL) | 12.7 (≈ 8 µg/mL) | ≤ 0.05 | 1.59 (≈ 1 µg/mL) | – | – | – | – | – | O=C(O)c1cn([C@@H]2C[C@@H]2F)c2cc(N3CCN(Cn4nc(-c5ccccc5O)n(-c5ccccc5)c4=S)CC3)c(F)cc2c1=O | – | – | – |
